{"source": "patent EP4818187A1", "about": "“COMPOUND AND USE THEREOF” (Ganzhou Hemay Pharmaceutical, Co., Ltd, priority 2023, dated 2025)", "test_system": "human gastric cancer NCI-N87", "test": "Biological Example 3: in vivo xenograft model of human gastric cancer NCI-N87", "set-up": "species or system Balb/c-nu nude mice", "conditions": "nude mice", "experimental": "First, the xenograft model of human gastric cancer NCI-N87 was established subcutaneously in nude mice by inoculation with a cell-matrigel mixture. When the xenograft tumor grew to a volume of 100-300 mm^3 and maintained stable growth, the experimental animals were randomly grouped using remainder method based on the tumor volume and administered with drugs. The tumor volume was measured 2 to 3 times every week. After the dosing period was completed, the experimental animals were killed, and the subcutaneous tumors were excised and weighed. The anti-tumor activity of the drug in this model was evaluated based on relevant data of the tumor volumes and the tumor weights. Table 8: List of experimental animal groups and dosage regimens\nCalculation formula of the tumor volume: volume=0.5× long diameter × short diameter^2. Relative tumor volume(RTV): RTV = Vt/ V0 [formula]\nV0 is the tumor volume measured at the time of grouping for dosing (i.e., d0), and Vt is the tumor volume measured each time. Relative tumor proliferation rate(T/C): T/C = TRTV /CRTV × 100% [formula]\nT is the mean RTV of the test compound, and C is the mean RTV of the model control group. [formula] Body weight change percentage = Wn /W0 × 100% [formula]\nWn: mean body weight of each group of experimental animals on day n, and W0: mean body weight of each group of experimental animals on day 0.\nThe purchased experimental animals were subjected to balanced feeding for 3 days. A xenograft model was established in nude mice by inoculation with a cell-matrigel mixture: conventionally cultured NCI-N87 cells in the logarithmic growth phase were sampled, digested, collected, and adjusted with PBS to a cell density of 6×10^7 cells/mL. In an ice water bath, the cell suspension was slowly added to an equal volume of matrigel, the system was fully mixed, and then the xenograft model was established by subcutaneous inoculation in the right armpit of male nude mice, with 0.15 mL/mouse and a cell inoculum size of approximately 4.5 million cells/mouse.\nThe tumor growth of the model animals was regularly observed. When the mean tumor volume of the model nude mice reached about 100-300 mm^3, the experimental animals were randomly grouped using the remainder method based on the tumor volume, and administered with drugs. The day on which the animals were grouped was day 0. After grouping, drugs were administered to each group according to Table 8. The dosage or dosing period can be appropriately adjusted based on the tumor growth and the animal state. After administration, the tumor volumes of the experimental animals were measured 2-3 times every week until the experiment was completed. After the dosing period was completed, the experimental animals were killed, and the subcutaneous tumors were excised and weighed. The anti-tumor activity of each compound in this model was evaluated based on relevant data of the tumor volumes and tumor weights. Table 9: Effect on growth of xenograft model of human gastric cancer NCI-N87\nThe test was performed based on the dosage regimen in Table 10, following the method in Biological Example 2. Table 10: List of dosage regimens", "data": [{"smiles": "CC[C@H](C)[C@@H]([C@@H](CC(=O)N1CCC[C@H]1[C@H](OC)[C@@H](C)C(=O)N[C@H](C)[C@@H](OCc1ccc(O[C@@H]2O[C@H](C(=O)[O-])[C@@H](O)[C@H](O)[C@H]2O)cc1OCc1cn(CCCCCC(=O)Nc2ccc(-c3ccc(/N=N/c4ccc5c(S(=O)(=O)[O-])cc(S(=O)(=O)[O-])c(N)c5c4O)c(C)c3)cc2C)nn1)c1ccccc1)OC)N(C)C(=O)[C@@H](NC(=O)[C@H](C(C)C)N(C)C)C(C)C.[Na+].[Na+].[Na+]", "note": "[Example compound 2]", "values": [{"measurement": "Final body weight change (%)", "setting": "15 mg/kg i.v. qw×2", "result": 11.4, "unit": "%"}, {"measurement": "Maximum body weight change (%)", "setting": "15 mg/kg i.v. qw×2", "result": "11.4, d26%"}, {"measurement": "Relative volume RTV (x±S.D.)", "setting": "15 mg/kg i.v. qw×2", "result": "0.48±0.07"}, {"measurement": "T/C (%)", "setting": "15 mg/kg i.v. qw×2", "result": 5.9, "unit": "%"}, {"measurement": "Tumor inhibition rate (%)", "setting": "15 mg/kg i.v. qw×2", "result": 96.4, "unit": "%"}, {"measurement": "Tumor weight (g, x±S.D.)", "setting": "15 mg/kg i.v. qw×2", "result": "0.048 ± 0.009", "unit": "g"}, {"measurement": "Body weight (g, x±S.D.) End", "setting": "15 mg/kg i.v. qw×2, End", "result": "26.9 ± 1.3", "unit": "g"}, {"measurement": "Body weight (g, x±S.D.) Start", "setting": "15 mg/kg i.v. qw×2, Start", "result": "24.2 ± 1.5", "unit": "g"}]}]}
